Data: ChEMBL document CHEMBL1201862, “PubChem BioAssay data set” (2004)
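Exposure lasted 48 hours, with cells grown in 96-well plates and compounds tested at five concentrations. Here, GI50 denotes the concentration required for 50% inhibition of growth.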 Activity calls are given as the source filed them. Cut-off read from the data, not from the text of the source: active = GI50 up to about 1.1 µM and inactive = higher.

What was measured:
Test in all cases: DTP human tumour cell line panel, 48 h
K562 = tested on: K562
SNB-75 = tested on: SNB-75
786-0 = tested on: 786-0
BT-549 = tested on: BT-549
HCT-116 = tested on: HCT-116
SF-539 = tested on: SF-539
UO-31 = tested on: UO-31
RPMI-8226 = tested on: RPMI-8226
HCT-15 = tested on: HCT-15
UACC-257 = tested on: UACC-257
MDA-MB-231 = tested on: MDA-MB-231
EKVX = tested on: EKVX
COLO 205 = tested on: COLO 205
KM12 = tested on: KM12
MDA-N = tested on: MDA-N
HOP-62 = tested on: HOP-62
NCI-H522 = tested on: NCI-H522
UACC-62 = tested on: UACC-62
Malme-3M = tested on: Malme-3M
LOX IMVI = tested on: LOX IMVI
HCC 2998 = tested on: HCC 2998
MOLT-4 = tested on: MOLT-4
MCF7 = tested on: MCF7
OVCAR-8 = tested on: OVCAR-8
MDA-MB-435 = tested on: MDA-MB-435
M14 = tested on: M14
SW-620 = tested on: SW-620
SR = tested on: SR
SN12C = tested on: SN12C
RXF 393 = tested on: RXF 393
OVCAR-4 = tested on: OVCAR-4
U-251 = tested on: U-251
HT-29 = tested on: HT-29
ACHN = tested on: ACHN
IGROV-1 = tested on: IGROV-1
SF-268 = tested on: SF-268
TK-10 = tested on: TK-10
SK-OV-3 = tested on: SK-OV-3
CCRF-CEM = tested on: CCRF-CEM
DU-145 = tested on: DU-145
NCI-H460 = tested on: NCI-H460
NCI/ADR-RES = tested on: NCI/ADR-RES
CAKI-1 = tested on: CAKI-1
NCI-H226 = tested on: NCI-H226
PC-3 = tested on: PC-3
SK-MEL-2 = tested on: SK-MEL-2
SK-MEL-28 = tested on: SK-MEL-28
NCI-H23 = tested on: NCI-H23
A498 = tested on: A498
OVCAR-5 = tested on: OVCAR-5
SNB-19 = tested on: SNB-19
SK-MEL-5 = tested on: SK-MEL-5
OVCAR-3 = tested on: OVCAR-3
A549 = tested on: A549
SF-295 = tested on: SF-295
Hs-578T = tested on: Hs-578T
T47D = tested on: T47D

COC(=O)C1=C(C(=O)OC)C2CCC1CC2=O (configuration not stated)
GI50 (K562): 49 µM (inactive) | GI50 (SNB-75): > 100 µM (inactive) | GI50 (786-0): > 100 µM (inactive) | GI50 (BT-549): > 100 µM (inactive) | GI50 (HCT-116): > 100 µM (inactive) | GI50 (SF-539): > 100 µM (inactive) | GI50 (UO-31): 55.1 µM (inactive) | GI50 (RPMI-8226): > 100 µM (inactive) | GI50 (HCT-15): 83.8 µM | GI50 (UACC-257): > 100 µM (inactive) | GI50 (MDA-MB-231): > 100 µM (inactive) | GI50 (EKVX): > 100 µM (inactive) | GI50 (COLO 205): 50.9 µM (inactive) | GI50 (KM12): 65.6 µM (inactive) | GI50 (MDA-N): > 100 µM (inactive) | GI50 (HOP-62): > 100 µM (inactive) | GI50 (NCI-H522): 70.6 µM (inactive) | GI50 (UACC-62): > 100 µM (inactive) | GI50 (Malme-3M): > 100 µM (inactive) | GI50 (LOX IMVI): > 100 µM (inactive) | GI50 (HCC 2998): > 100 µM (inactive) | GI50 (MOLT-4): 45.5 µM (inactive) | GI50 (MCF7): > 100 µM (inactive) | GI50 (OVCAR-8): > 100 µM (inactive) | GI50 (MDA-MB-435): > 100 µM (inactive) | GI50 (M14): > 100 µM (inactive) | GI50 (SW-620): 89.9 µM (inactive) | GI50 (SR): 61.2 µM (inactive) | GI50 (SN12C): > 100 µM (inactive) | GI50 (RXF 393): > 100 µM (inactive) | GI50 (OVCAR-4): > 100 µM (inactive) | GI50 (U-251): > 100 µM (inactive) | GI50 (HT-29): > 100 µM (inactive) | GI50 (ACHN): > 100 µM (inactive) | GI50 (IGROV-1): > 100 µM (inactive) | GI50 (SF-268): > 100 µM (inactive) | GI50 (TK-10): > 100 µM (inactive) | GI50 (SK-OV-3): > 100 µM (inactive) | GI50 (CCRF-CEM): 31.3 µM (inactive) | GI50 (DU-145): > 100 µM (inactive) | GI50 (NCI-H460): > 100 µM (inactive) | GI50 (NCI/ADR-RES): > 100 µM (inactive) | GI50 (CAKI-1): > 100 µM (inactive) | GI50 (NCI-H226): > 100 µM (inactive) | GI50 (PC-3): > 100 µM (inactive) | GI50 (SK-MEL-2): > 100 µM (inactive) | GI50 (SK-MEL-28): > 100 µM (inactive) | GI50 (NCI-H23): > 100 µM (inactive) | GI50 (A498): > 100 µM (inactive) | GI50 (OVCAR-5): > 100 µM (inactive) | GI50 (SNB-19): > 100 µM (inactive) | GI50 (SK-MEL-5): > 100 µM (inactive) | GI50 (OVCAR-3): > 100 µM (inactive) | GI50 (A549): > 100 µM (inactive) | GI50 (SF-295): > 100 µM (inactive)

COC1CCC(=O)N1CN(C(C)=O)c1ccc(C)cc1 (configuration not stated)
GI50 (K562): > 100 µM (inactive) | GI50 (SNB-75): > 100 µM (inactive) | GI50 (786-0): > 100 µM (inactive) | GI50 (HCT-116): > 100 µM (inactive) | GI50 (SF-539): > 100 µM (inactive) | GI50 (UO-31): > 100 µM (inactive) | GI50 (RPMI-8226): > 100 µM (inactive) | GI50 (HCT-15): > 100 µM | GI50 (UACC-257): > 100 µM (inactive) | GI50 (MDA-MB-231): > 100 µM (inactive) | GI50 (COLO 205): > 100 µM (inactive) | GI50 (Hs-578T): > 100 µM (inactive) | GI50 (KM12): > 100 µM (inactive) | GI50 (MDA-N): > 100 µM (inactive) | GI50 (HOP-62): > 100 µM (inactive) | GI50 (UACC-62): > 100 µM (inactive) | GI50 (LOX IMVI): > 100 µM (inactive) | GI50 (HCC 2998): > 100 µM (inactive) | GI50 (MOLT-4): > 100 µM (inactive) | GI50 (MCF7): > 100 µM (inactive) | GI50 (OVCAR-8): > 100 µM (inactive) | GI50 (MDA-MB-435): > 100 µM (inactive) | GI50 (M14): > 100 µM (inactive) | GI50 (SW-620): > 100 µM (inactive) | GI50 (SR): > 100 µM (inactive) | GI50 (SN12C): > 100 µM (inactive) | GI50 (RXF 393): > 100 µM (inactive) | GI50 (OVCAR-4): > 100 µM (inactive) | GI50 (U-251): > 100 µM (inactive) | GI50 (HT-29): > 100 µM (inactive) | GI50 (ACHN): > 100 µM (inactive) | GI50 (SF-268): > 100 µM (inactive) | GI50 (TK-10): > 100 µM (inactive) | GI50 (SK-OV-3): > 100 µM (inactive) | GI50 (CCRF-CEM): 0.0569 µM (active) | GI50 (DU-145): > 100 µM (inactive) | GI50 (NCI-H460): > 100 µM (inactive) | GI50 (NCI/ADR-RES): > 100 µM (inactive) | GI50 (CAKI-1): > 100 µM (inactive) | GI50 (NCI-H226): > 100 µM (inactive) | GI50 (PC-3): > 100 µM (inactive) | GI50 (SK-MEL-2): > 100 µM (inactive) | GI50 (SK-MEL-28): > 100 µM (inactive) | GI50 (NCI-H23): > 100 µM (inactive) | GI50 (A498): > 10 µM (inactive) | GI50 (OVCAR-5): > 100 µM (inactive) | GI50 (SNB-19): > 100 µM (inactive) | GI50 (SK-MEL-5): > 100 µM (inactive) | GI50 (OVCAR-3): > 100 µM (inactive) | GI50 (A549): > 100 µM (inactive) | GI50 (T47D): > 100 µM (inactive) | GI50 (SF-295): > 100 µM (inactive)
